Experimental data published in PubChem BioAssay (NCI).
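Dose response: 5 concentrations. Exposure: 48 h. Format: 96-well plates. Endpoint: linear interpolation; highest concentration if not reached. GI50 marks 50% less growth. Definition used: TGI = concentration required for complete inhibition of growth.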 Where a SMILES comes first, the peptide text is derived from it. The star is where a group is joined. Boc = CC(C)(C)OC(=O)*

How the values were obtained:
Assay in all cases: inhibition of tumour cell growth, NCI panel, 48 h
[1] = test system: SK-MEL-2 melanoma
[2] = test system: HCT-116 colon
[3] = test system: SK-MEL-5 melanoma
[4] = test system: CCRF-CEM leukemia
[5] = test system: SNB-19 CNS
[6] = test system: COLO 205 colon
[7] = test system: UACC-257 melanoma
[8] = test system: SF-295 CNS
[9] = test system: HS 578T breast
[10] = test system: MDA-MB-435

Compound	TGI [1]	TGI [2]	TGI [3]	TGI [4]	TGI [5]	TGI [6]	TGI [7]	TGI [8]	GI50 [1]	GI50 [3]	GI50 [4]	GI50 [5]	GI50 [9]	TGI [9]	GI50 [6]	GI50 [7]	GI50 [8]	GI50 [10]	TGI [10]
CC(=O)O[C@]12CCCCCC1C1(O)C(O)CCC[C@H]12 (stereo partly drawn)	> 100 µM	> 100 µM	> 100 µM	> 100 µM	> 100 µM	> 100 µM	> 100 µM	> 100 µM	–	–	–	–	–	–	–	–	–	–	–
COc1cc([N+](=O)[O-])c(OC)cc1-c1nc2sc(Cl)cn2c1/C=N/Nc1ccccn1	> 50 µM	–	36 µM	> 50 µM	> 50 µM	> 50 µM	> 50 µM	41.8 µM	> 50 µM	12.8 µM	> 50 µM	> 50 µM	16.8 µM	> 50 µM	> 50 µM	> 50 µM	12.4 µM	> 50 µM	> 50 µM
O=c1ccc2cc3ccc4cccc5ccc(c2o1)c3c45	> 100 µM	–	> 100 µM	> 100 µM	> 100 µM	> 100 µM	–	> 100 µM	–	–	–	–	–	–	–	–	–	–	–
Cc1c2c(n(CCc3ccc(Cl)cc3)c1C)NN=C(C#N)S2(=O)=O	> 100 µM	> 100 µM	> 100 µM	–	> 100 µM	> 100 µM	> 100 µM	–	–	–	–	–	–	> 100 µM	–	–	–	–	> 100 µM
O=C(CNc1ccccc1Cl)Nn1c(-c2ccccc2)nc2ccccc2c1=O	–	> 100 µM	21.8 µM	70.5 µM	> 10 µM	34.6 µM	> 100 µM	91.1 µM	–	–	–	–	–	89.5 µM	–	–	–	–	37.4 µM
O=C(CCCN1CCC2(CC1)CC(=O)N(N1CCOCC1)C2=O)c1ccccc1	–	> 100 µM	> 100 µM	> 100 µM	> 100 µM	> 100 µM	> 100 µM	> 100 µM	–	–	–	–	–	–	–	–	–	–	35.4 µM
CCN(CCO)CC1COc2ccccc2O1 (stereo not drawn)	–	> 100 µM	> 100 µM	> 100 µM	–	> 100 µM	> 100 µM	> 100 µM	–	–	–	–	–	> 100 µM	–	–	–	–	> 100 µM
BrC/C=C/C[P+](c1ccccc1)(c1ccccc1)c1ccccc1	25.7 µM	> 100 µM	39.8 µM	> 100 µM	> 100 µM	16.1 µM	> 100 µM	60.6 µM	–	–	–	–	–	–	–	–	–	–	–
c1ccc2sc(SCSc3nc4ccccc4s3)nc2c1	> 100 µM	> 100 µM	> 100 µM	> 100 µM	> 100 µM	–	> 100 µM	> 100 µM	–	–	–	–	–	> 100 µM	–	–	–	–	> 100 µM
CSc1c(C#N)c(N)n2c1C(=O)N(c1ccccc1)C2=S	–	> 100 µM	> 100 µM	> 100 µM	> 100 µM	78.3 µM	> 100 µM	> 100 µM	–	–	–	–	–	80.7 µM	–	–	–	–	> 100 µM
O=C1C=CC(=O)N1Nc1ccc([N+](=O)[O-])cc1[N+](=O)[O-]	> 100 µM	> 100 µM	> 100 µM	> 34.3 µM	> 100 µM	> 60.7 µM	> 100 µM	> 100 µM	–	–	–	–	–	–	–	–	–	–	–
CS(=O)(=O)OCCn1c(=O)n(CCOS(C)(=O)=O)c(=O)n(CCOS(C)(=O)=O)c1=O	–	> 100 µM	> 100 µM	> 100 µM	> 100 µM	> 100 µM	> 100 µM	> 100 µM	–	–	–	–	–	–	–	–	–	–	> 100 µM
O=C(NC(Cc1ccc(I)cc1)C(=O)O)c1ccc(I)cc1 (stereo not drawn)	> 100 µM	> 100 µM	> 100 µM	> 100 µM	> 100 µM	> 100 µM	> 100 µM	> 100 µM	–	–	–	–	–	–	–	–	–	–	–
CC(C(=O)n1nnc2ccccc21)N(c1ccccc1)c1ccccc1 (stereo not drawn)	> 100 µM	> 100 µM	> 100 µM	> 100 µM	> 100 µM	> 100 µM	> 100 µM	> 100 µM	–	–	–	–	–	–	–	–	–	–	–
COc1ccc2nc3cc(Cl)ccc3c(NCCCNCCCNc3c4ccc(Cl)cc4nc4ccc(OC)cc34)c2c1	0.15 µM	–	–	14.8 µM	0.314 µM	0.158 µM	1.76 µM	0.183 µM	–	–	–	–	–	–	–	–	–	–	–
Cc1nn(C(=O)Cc2ccccc2)c2c1C(c1ccc(O)cc1)SC(N)=N2 (stereo not drawn)	–	> 100 µM	> 100 µM	> 100 µM	> 100 µM	> 100 µM	> 100 µM	> 100 µM	–	–	–	–	–	> 100 µM	–	–	–	–	> 100 µM
O=C(NCCCN(CCCCN(CCCNC(=O)C(F)(F)F)Cc1ccccc1)Cc1ccccc1)C(F)(F)F	–	23.6 µM	14.9 µM	51.7 µM	26.6 µM	26.8 µM	16.9 µM	30 µM	–	–	–	–	–	31.4 µM	–	–	–	–	33.9 µM
CN(C)C(=S)S	> 93.8 µM	> 59.9 µM	> 100 µM	–	> 100 µM	> 100 µM	> 100 µM	> 100 µM	–	–	–	–	–	> 100 µM	–	–	–	–	> 100 µM
CCOC(=N)n1c(=O)n(C2=NCCN2)c2ccccc21	–	> 100 µM	–	> 100 µM	> 100 µM	> 100 µM	> 100 µM	> 100 µM	–	–	–	–	–	–	–	–	–	–	> 100 µM

Compound	TGI [1]	TGI [2]	TGI [3]	TGI [4]	TGI [5]	TGI [6]	TGI [7]	TGI [8]	GI50 [1]	GI50 [3]	GI50 [4]	GI50 [5]	GI50 [9]	TGI [9]	GI50 [6]	GI50 [7]	GI50 [8]	GI50 [10]	TGI [10]
COc1ccc(CC(O)CN2CCOCC2)cc1 (stereo not drawn)	> 100 µM	> 100 µM	> 100 µM	> 100 µM	> 100 µM	–	> 100 µM	> 100 µM	–	–	–	–	–	> 100 µM	–	–	–	–	> 100 µM
C=CCn1c(=O)ccn(COCCO)c1=O	> 100 µM	–	> 100 µM	> 100 µM	> 100 µM	> 100 µM	> 100 µM	–	–	–	–	–	–	> 100 µM	–	–	–	–	> 100 µM
NNC(=O)c1ccc[n+](CCc2ccccc2)c1	–	> 100 µM	> 100 µM	–	> 100 µM	> 100 µM	> 100 µM	> 100 µM	–	–	–	–	–	> 100 µM	–	–	–	–	> 100 µM
Cc1cn(C2OC(C)(CO)C(O)C2O)c(=O)[nH]c1=O (stereo not drawn)	> 100 µM	> 100 µM	> 100 µM	> 100 µM	> 100 µM	> 100 µM	–	> 100 µM	–	–	–	–	–	–	–	–	–	–	–
C=CCNC(=S)/N=C/c1c(O)c2ccccc2oc1=O	> 100 µM	> 100 µM	> 100 µM	> 100 µM	> 100 µM	> 100 µM	> 100 µM	> 100 µM	–	–	–	–	–	–	–	–	–	–	–
CC1(C)N=C(C(N)=O)c2ncn(CCCO)c2N1	–	> 100 µM	> 100 µM	> 100 µM	> 100 µM	> 100 µM	> 100 µM	> 100 µM	–	–	–	–	–	> 100 µM	–	–	–	–	> 100 µM
c1ccc2c(c1)NC(C1OC3CCCN3C1C1Nc3ccccc3S1)S2 (stereo not drawn)	–	> 100 µM	> 100 µM	> 100 µM	> 100 µM	> 100 µM	> 100 µM	> 100 µM	–	–	–	–	–	> 100 µM	–	–	–	–	> 100 µM
Cc1cc(=O)c2c([nH]1)NS(=O)(=O)NC2=O	> 100 µM	> 100 µM	–	> 100 µM	> 100 µM	> 100 µM	> 100 µM	> 100 µM	–	–	–	–	–	–	–	–	–	–	–
CC(C)(C)NC(=O)/C(=C\Sc1ccccc1)c1ccc2c(c1)OCO2	34.6 µM	65.8 µM	32.8 µM	> 100 µM	> 100 µM	53.4 µM	74.5 µM	> 100 µM	–	–	–	–	–	–	–	–	–	–	47.7 µM
CC(C)(C)OC(=O)NCC(=O)NCC(=O)NCC(=O)NCC(=O)O (Boc-GGGG-OH)	–	> 100 µM	> 100 µM	> 100 µM	> 100 µM	> 100 µM	> 100 µM	> 100 µM	–	–	–	–	–	> 100 µM	–	–	–	–	> 100 µM
CCOC(=O)/C=C(\C)c1ccc(C)cc1C	> 100 µM	> 100 µM	> 100 µM	> 100 µM	> 100 µM	> 100 µM	> 100 µM	> 100 µM	–	–	–	–	–	–	–	–	–	–	–
CN(C)c1nc(=NCc2ccccc2)ss1	–	> 10 µM	> 10 µM	4.66 µM	> 10 µM	> 10 µM	> 10 µM	> 10 µM	–	–	–	–	–	> 10 µM	–	–	–	–	> 10 µM
Cc1c(S(=O)(=O)/N=C(\N)Nc2ccc(Cl)cc2)sc2ccc(Cl)cc12	33.9 µM	31.5 µM	> 100 µM	–	57.4 µM	45.9 µM	40.4 µM	46.7 µM	–	–	–	–	–	59 µM	–	–	–	–	–
O=C1CN2C(c3ccccc3)=NN(c3ccc([N+](=O)[O-])cc3)C2(c2ccccc2)c2cc(Cl)ccc2N1CC1CC1 (stereo not drawn)	–	> 100 µM	> 100 µM	> 100 µM	> 100 µM	> 100 µM	> 100 µM	> 100 µM	–	–	–	–	–	> 100 µM	–	–	–	–	> 100 µM
C=CC[C@]12C[C@@H](C(=O)OC)N(C(=O)OC)[C@H]1N(S(=O)(=O)c1ccccc1)c1ccccc12	> 100 µM	> 100 µM	> 100 µM	> 100 µM	> 100 µM	–	77.3 µM	–	–	–	–	–	–	> 100 µM	–	–	–	–	> 100 µM
CC12CC(=O)C3C(C(=O)C1)C32C (stereo not drawn)	> 100 µM	> 100 µM	> 100 µM	> 100 µM	> 100 µM	> 100 µM	> 100 µM	> 100 µM	–	–	–	–	–	–	–	–	–	–	> 100 µM
N#C/C(=C\c1cc(Br)c(O)c(Br)c1)c1cccnc1	44.4 µM	> 100 µM	–	> 100 µM	> 100 µM	> 100 µM	73.5 µM	46.7 µM	–	–	–	–	–	–	–	–	–	–	–
CCN(C(=S)N[C@@H](Cc1ccccc1)C(=O)N[C@@H](CC(C)C)C(=O)OC)c1ccccc1	> 100 µM	> 100 µM	> 100 µM	> 100 µM	> 100 µM	> 100 µM	> 100 µM	> 100 µM	–	–	–	–	–	–	–	–	–	–	> 100 µM
